System: P12-Ichikawa
Experiment: cell viability relative to DMSO control; higher = less cytotoxic
Details: 48 h
Procedure, shortened: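 Library compounds in DMSO were pin-dosed into 1536-well plates (5 μl) holding NOMO1 or SEM (500 cells/well) or P12-Ichikawa (1000 cells/well) leukemia cells, across an 11-point threefold series of 47 μM to 0.79 nM. Each cell line had been adapted for at least four passages in each medium. CellTiter-Glo One luminescence was read after 48 h at 37°C. Viability is the per-plate percentage relative to DMSO wells, with cell-free wells as background.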

[1] = HPLM + 10% dialyzed FBS, 0.000781 µM
[2] = HPLM + 10% dialyzed FBS, 0.00234 µM
[3] = HPLM + 10% dialyzed FBS, 0.00702 µM
[4] = HPLM + 10% dialyzed FBS, 0.0211 µM
[5] = HPLM + 10% dialyzed FBS, 0.0632 µM
[6] = HPLM + 10% dialyzed FBS, 0.19 µM
[7] = HPLM + 10% dialyzed FBS, 0.569 µM
[8] = HPLM + 10% dialyzed FBS, 1.71 µM
[9] = HPLM + 10% dialyzed FBS, 5.12 µM
[10] = HPLM + 10% dialyzed FBS, 15.4 µM
[11] = HPLM + 10% dialyzed FBS, 46.1 µM
[12] = RPMI 5 mM glucose + 10% FBS, 0.000781 µM
[13] = RPMI 5 mM glucose + 10% FBS, 0.00234 µM
[14] = RPMI 5 mM glucose + 10% FBS, 0.00702 µM
[15] = RPMI 5 mM glucose + 10% FBS, 0.0211 µM
[16] = RPMI 5 mM glucose + 10% FBS, 0.0632 µM
[17] = RPMI 5 mM glucose + 10% FBS, 0.19 µM
[18] = RPMI 5 mM glucose + 10% FBS, 0.569 µM
[19] = RPMI 5 mM glucose + 10% FBS, 1.71 µM
[20] = RPMI 5 mM glucose + 10% FBS, 5.12 µM
[21] = RPMI 5 mM glucose + 10% FBS, 15.4 µM
[22] = RPMI 5 mM glucose + 10% FBS, 46.1 µM
[23] = RPMI 5 mM glucose + 10% dialyzed FBS, 0.000781 µM
[24] = RPMI 5 mM glucose + 10% dialyzed FBS, 0.00234 µM
[25] = RPMI 5 mM glucose + 10% dialyzed FBS, 0.00702 µM
[26] = RPMI 5 mM glucose + 10% dialyzed FBS, 0.0211 µM
[27] = RPMI 5 mM glucose + 10% dialyzed FBS, 0.0632 µM
[28] = RPMI 5 mM glucose + 10% dialyzed FBS, 0.19 µM
[29] = RPMI 5 mM glucose + 10% dialyzed FBS, 0.569 µM
[30] = RPMI 5 mM glucose + 10% dialyzed FBS, 1.71 µM
[31] = RPMI 5 mM glucose + 10% dialyzed FBS, 5.12 µM
[32] = RPMI 5 mM glucose + 10% dialyzed FBS, 15.4 µM
[33] = RPMI 5 mM glucose + 10% dialyzed FBS, 46.1 µM

SMILES	cell viability [1] [%]	cell viability [2] [%]	cell viability [3] [%]	cell viability [4] [%]	cell viability [5] [%]	cell viability [6] [%]	cell viability [7] [%]	cell viability [8] [%]	cell viability [9] [%]	cell viability [10] [%]	cell viability [11] [%]	cell viability [12] [%]	cell viability [13] [%]	cell viability [14] [%]	cell viability [15] [%]	cell viability [16] [%]	cell viability [17] [%]	cell viability [18] [%]	cell viability [19] [%]	cell viability [20] [%]	cell viability [21] [%]	cell viability [22] [%]	cell viability [23] [%]	cell viability [24] [%]	cell viability [25] [%]	cell viability [26] [%]	cell viability [27] [%]	cell viability [28] [%]	cell viability [29] [%]	cell viability [30] [%]	cell viability [31] [%]	cell viability [32] [%]	cell viability [33] [%]
NC(=O)c1ccc(-c2nc(-c3ccc4c(c3)OCO4)c(-c3ccccn3)[nH]2)cc1	124	124	123	107	127	123	116	114	110	112	100	122	130	116	109	118	111	108	116	100	107	93.8											
CCc1cccc2c3c([nH]c12)C(CC)(CC(=O)O)OCC3 (stereo not drawn)	108	107	110	109	104	105	105	108	99.4	99.2	93.7	104	107	106	103	101	99.9	100	93.1	96.4	96.6	85.7	94.4	98	99.9	103	102	101	98.9	98.1	92.9	94.1	84.8
C/C(=C\c1csc(C)n1)[C@@H]1C[C@@H]2O[C@]2(C)CCC[C@H](C)[C@H](O)[C@@H](C)C(=O)C(C)(C)[C@@H](O)CC(=O)O1	33.8	32.1	28.8	58.9	28.1	22.6	23.1	25.3	30.8	17.1	21.4	18.2	19.1	23.7	44.1	24.6	22.6	24.3	22.7	25.6	24.2	27	44.5	34.4	31.2	58	37.6	35.4	32.6	32.8	43.7	35.5	38
Oc1cc2c(cc1O)C1c3ccc(O)c(O)c3OCC1(O)C2 (stereo not drawn)	96.7	106	108	112	103	113	95.5	118	102	111	112	104	96.6	102	101	101	103	102	110	118	109	108	97.5	93.8	103	102	98.2	107	106	100	105	104	104
Cn1cc(-c2cnn3c(N)c(Br)c([C@@H]4CCCNC4)nc23)cn1	96.1	102	99.5	97.5	102	99.7	91.3	86.4	16.8	5.55	6.43	91.6	98.8	94	100	93.4	96.5	93.8	77.3	13.1	3.15	3.91	86.9	103	95.9	95.1	89.8	99	90.2	77.3	12.2	4.05	5.37
O=P1(N(CCCl)CCCl)NCCCO1 (stereo not drawn)	112	113	115	113	106	109	101	106	98.1	16.5	6.1	112	113	109	113	108	113	112	102	101	51.8	8.07	115	109	106	102	107	117	108	101	101	90	17.3
CCCCOc1ccc(CC(=O)NO)cc1	108	108	108	110	111	102	102	105	107	97.5	67.7	115	115	102	116	109	111	105	101	100	96.4	59.1	114	109	113	108	110	104	108	106	98.3	92.4	59.2
COC(=O)Nc1ccc(-c2nc(N3CCOCC3)c3cnn(C4CCN(Cc5cccnc5)CC4)c3n2)cc1	113	117	112	113	109	96.2	83.5	83.6	51.1	31.9	12.9	106	111	102	103	98.3	69.9	61	61.4	43.1	32.4	24.7	113	118	114	116	100	72.3	65.2	59.8	53.1	43.5	6.49
